Test results: ChEMBL document CHEMBL1201862, “PubChem BioAssay data set” (2004)
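Method: 48-hour compound exposure of cells in 96-well plates, five concentrations, linear interpolation of endpoints. At the GI50, growth is halved.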 The source made the active and inactive calls. No stated cut-off is given here; in the data, active = GI50 up to about 1.1 µM and inactive = higher.

Columns and labels:
Assay in all cases: inhibition of tumour cell growth, NCI panel, 48 h
786-0 = test system: 786-0
A498 = test system: A498
ACHN = test system: ACHN
CAKI-1 = test system: CAKI-1
DU-145 = test system: DU-145
EKVX = test system: EKVX
HCC 2998 = test system: HCC 2998
IGROV-1 = test system: IGROV-1
KM12 = test system: KM12
MCF7 = test system: MCF7
MDA-MB-231 = test system: MDA-MB-231
MDA-N = test system: MDA-N
MOLT-4 = test system: MOLT-4
NCI-H226 = test system: NCI-H226
NCI-H522 = test system: NCI-H522
NCI/ADR-RES = test system: NCI/ADR-RES
OVCAR-8 = test system: OVCAR-8
RXF 393 = test system: RXF 393
SF-295 = test system: SF-295
U-251 = test system: U-251

Row | SMILES | GI50 (786-0) | GI50 (A498) | GI50 (ACHN) | GI50 (CAKI-1) | GI50 (DU-145) | GI50 (EKVX) | GI50 (HCC 2998) | GI50 (IGROV-1) | GI50 (KM12) | GI50 (MCF7) | GI50 (MDA-MB-231) | GI50 (MDA-N) | GI50 (MOLT-4) | GI50 (NCI-H226) | GI50 (NCI-H522) | GI50 (NCI/ADR-RES) | GI50 (OVCAR-8) | GI50 (RXF 393) | GI50 (SF-295) | GI50 (U-251)
1 | O=C1Oc2ccccc2C(=O)/C1=C/N1C(=O)N/C(=C\c2ccccc2O)C1=O | 68.7 µM (inactive) | 42.6 µM (inactive) | 47.6 µM (inactive) | 79.4 µM (inactive) | 46.3 µM (inactive) | > 67.8 µM (inactive) | > 57.4 µM (inactive) | 48.8 µM (inactive) | 56.8 µM (inactive) | 61.1 µM (inactive) | 36.9 µM (inactive) | 60.7 µM (inactive) | 41.2 µM (inactive) | 81.1 µM (inactive) | 55.5 µM (inactive) | 65.3 µM (inactive) | 58.1 µM (inactive) | 37.5 µM (inactive) | > 71 µM (inactive) | 57.7 µM (inactive)
2 | Clc1ccc(CN2CCCN(Cc3ccc(Cl)cc3)C2c2cc3ccccc3c3ccccc23)cc1 | 75 µM (inactive) | 19 µM (inactive) | > 100 µM (inactive) | 49.8 µM (inactive) | 44.2 µM (inactive) | 39.1 µM (inactive) | – | > 100 µM (inactive) | 60.3 µM (inactive) | 37.2 µM (inactive) | 25.4 µM (inactive) | 37.2 µM (inactive) | 5.85 µM (inactive) | > 100 µM (inactive) | 18.9 µM (inactive) | 65.8 µM (inactive) | > 100 µM (inactive) | 24.8 µM (inactive) | 52.2 µM (inactive) | 33.3 µM (inactive)
3 | COc1nc(N)c(NC2OC(CO)C(O)C2O)c(=O)[nH]1 (stereo not given) | > 100 µM (inactive) | > 100 µM (inactive) | > 100 µM (inactive) | > 100 µM (inactive) | > 100 µM (inactive) | > 100 µM (inactive) | > 100 µM (inactive) | > 100 µM (inactive) | > 100 µM (inactive) | > 100 µM (inactive) | > 100 µM (inactive) | > 100 µM (inactive) | > 100 µM (inactive) | > 100 µM (inactive) | – | > 100 µM (inactive) | > 100 µM (inactive) | > 100 µM (inactive) | > 100 µM (inactive) | > 100 µM (inactive)
4 | CC1=NN(C(=O)CSc2nnc(SCC(=O)N3N=C(C)CC3(O)c3ccccc3)s2)C(O)(c2ccccc2)C1 (stereo not given) | 43.3 µM (inactive) | > 100 µM (inactive) | 34.8 µM (inactive) | 45.8 µM (inactive) | 35.5 µM (inactive) | 27 µM (inactive) | > 100 µM (inactive) | 25.1 µM (inactive) | 26.7 µM (inactive) | 35.1 µM (inactive) | 95.5 µM (inactive) | 39.6 µM (inactive) | 32.3 µM (inactive) | – | 29.6 µM (inactive) | 27.9 µM (inactive) | 26.9 µM (inactive) | 24.9 µM (inactive) | 42 µM (inactive) | > 100 µM (inactive)
5 | COc1ccccc1N1C(=O)CSC1c1c[nH]c2ccccc12 (stereo not given) | > 100 µM (inactive) | > 100 µM (inactive) | > 100 µM (inactive) | – | > 100 µM (inactive) | > 100 µM (inactive) | > 100 µM (inactive) | > 100 µM (inactive) | > 100 µM (inactive) | > 100 µM (inactive) | 3.69 µM (inactive) | > 100 µM (inactive) | > 100 µM (inactive) | > 100 µM (inactive) | – | > 100 µM (inactive) | > 100 µM (inactive) | > 100 µM (inactive) | > 100 µM (inactive) | > 100 µM (inactive)
6 | Cc1cc(NC(=O)NC(=O)c2ccccc2N)ccc1Oc1ncc(Br)cn1 | < 0.0119 µM (active) | < 0.0802 µM (active) | 0.11 µM (active) | < 0.01 µM (active) | 0.0125 µM (active) | 0.0826 µM (active) | 0.0154 µM (active) | < 0.011 µM (active) | < 0.0105 µM (active) | < 0.01 µM (active) | < 0.01 µM (active) | < 0.01 µM (active) | < 0.0135 µM (active) | 0.0702 µM (active) | < 0.01 µM (active) | < 0.01 µM (active) | 0.0217 µM (active) | 0.0244 µM (active) | < 0.01 µM (active) | 0.0141 µM (active)
7 | [O-][N+]1=C(c2ccccc2)/C(=C2/C(c3ccccc3)=[N+]([O-])c3ccccc32)Cc2ccccc21 | 15.3 µM (inactive) | 5.52 µM (inactive) | 20.9 µM (inactive) | 22 µM (inactive) | 22 µM (inactive) | 20.4 µM (inactive) | 13.9 µM (inactive) | 16.4 µM (inactive) | 18.7 µM (inactive) | 43.4 µM (inactive) | 13.6 µM (inactive) | 17.1 µM (inactive) | 22.8 µM (inactive) | 22.5 µM (inactive) | 15.3 µM (inactive) | 15.7 µM (inactive) | 16.6 µM (inactive) | 33.1 µM (inactive) | 15.3 µM (inactive) | 14.5 µM (inactive)
